Laboratory results published in patent US20170107212A1, “NOVEL COMPOUNDS” (Bayer Pharma Aktiengesellschaft, priority 2014, published 2017).
Structures can show the parent of a compound that is named as a salt.

Key:
[1] = tested on: constitutive active colorectal cancer cell (CRC) Wnt pathway, HCT116 TOPFlash; assay: Cellular reporter assay, HCT116 Super TopFlash (constitutive active Wnt pathway), luciferase expression; assay type: cell-based; settings: HCT116 Super TopFlash reporter cells, 36 hours incubation, dilution series 50 μM to 15 nM
Method: In order to discover and characterize small molecules which inhibit the constitutive active colorectal cancer cell (CRC) Wnt pathway, a cellular reporter assay was employed. The corresponding assay cell was generated by transfection of the colorectal cancer cell line HCT116 (ATCC, #CCL-247) with the Super TopFlash vector (Morin, Science 275, 1997, 1787-1790; Molenaar et al., Cell 86 (3), 1996, 391-399). The HCT116 cell line is cultivated at 37° C. and 5% CO2 in DMEM/F-12 (Life Technologies, #11320-074), supplemented with 2 mM glutamine, 20 mM HEPES, 1.4 mM pyruvate, 0.15% Na-bicarbonate and 10% foetal bovine serum (GIBCO, #10270), this cancer cell line is pathophysiological relevant since it carries a deletion of position S45 in the β-catenin gene, leading to constitutive active Wnt signaling. Stable transfectants were generated by cotransfection with pcDNA3 and selection of stable transfected cells with 1 mg/ml G418.
(§1) In preparation of the assay, the two cell lines were plated 24 hours before at 10000 cells per well of a 384 micro titre plate (MTP) in 30 μL growth medium. Selective inhibitory activity for small molecules on the mutated Wnt pathway was determined after parallel incubation of both (TOP and FOP) HCT116 reporter cell lines with a compound dilution series from 50 μM to 15 nM in steps of 3.16-fold dilutions in CAFTY buffer (130 mM NaCl, 5 mM KCl, 20 mM HEPES, 1 mM MgCl2, 5 mM NaHCO3, pH 7.4) containing 2 mM Ca^2+ and 0.01% BSA. The compounds were thereby serially prediluted in 100% DMSO and thereafter in addition 50 fold into the CAFTY compound dilution buffer (described above). From this dilution 10 μL were added to the cells in 30 μL growth medium and incubated for 36 hours at 37° C. and 5% CO2. Thereafter luciferase assay buffer (1:1 mixture of luciferase substrate buffer (20 mM Tricine, 2.67 mM MgSO4, 0.1 mM EDTA, 4 mM DTT, 270 μM Coenzyme A, 470 μM Luciferin, 530 μM ATP, ph adjusted to pH 7.8 with a sufficient volume of 5M NaOH) and Triton buffer (30 mL Triton X-100, 115 mL glycerol, 308 mg Dithiothreitol, 4.45 g Na2HPO4.2H2O, 3.03 g TRIS HCl, ad 1 l H20, pH 7.8) was added as equal volume to the compound solution on the cells to determine luciferase expression as a measure of Wnt signaling activity in a luminometer.

[2] = tested on: HCT116 FOPFlash; assay: Control reporter assay, HCT116 FOP control vector (non-functional TCF elements), luciferase expression; assay type: cell-based; settings: HCT116 FOP control reporter cells, 36 hours incubation, dilution series 50 μM to 15 nM
Method: In a parallel approach, HCT116 cells were cotransfected with the FOP control vector and pcDNA3. The FOP vector is identical to the TOP construct, but it contains instead of functional TCF elements a randomized, non-functional sequence. For this transfection a stable transfected cell line was generated as well.
as §1

Row | Compound | IC50 ([1]; Homo sapiens, HCT-116, 36 h) [nM] | IC50 ([2]; Homo sapiens, HCT-116, 36 h) [nM] | also measured
1 | COc1ccc(NC(=O)c2ccc(-c3ccncc3)s2)cc1NC(=O)CN1CCOCC1 [Example 25, N-{4-methoxy-3-[(morpholin-4-ylacetyl)amino]phenyl}-5-(pyridin-4-yl)thiophene-2-carboxamide] | 4400 | ≥ 50000 | –
2 | CN1CCN(C2(C(=O)Nc3cc(C(=O)Nc4nnc(-c5cccnc5)s4)ccc3Cl)CC2)CC1 [Example 26, 4-chloro-3-({[1-(4-methylpiperazin-1-yl)cyclopropyl]carbonyl}amino)-N-[5-(pyridin-3-yl)-1,3,4-thiadiazol-2-yl]benzamide] | 500 | ≥ 50000 | –
3 | Cc1ncccc1-c1nnc(NC(=O)c2ccc(OC(F)(F)F)c(NC(=O)CN3CCN(C)CC3)c2)s1 [Example 27, 3-{[(4-methylpiperazin-1-yl)acetyl]amino}-N-[5-(2-methylpyridin-3-yl)-1,3,4-thiadiazol-2-yl]-4-(trifluoromethoxy)benzamide] | 2700 | ≥ 50000 | –
4 | Cc1ncccc1-c1nnc(NC(=O)c2ccc(OC(F)(F)F)c(NC(=O)CN3CCOCC3)c2)s1 [Example 28, N-[5-(2-methylpyridin-3-yl)-1,3,4-thiadiazol-2-yl]-3-[(morpholin-4-ylacetyl)amino]-4-(trifluoromethoxy)benzamide] | 1140 | ≥ 50000 | –
5 | CN1CCN(C2(C(=O)Nc3cc(C(=O)Nc4nnc(-c5cncnc5)s4)ccc3OC(F)(F)F)CC2)CC1 [Example 29, 3-({[1-(4-methylpiperazin-1-yl)cyclopropyl]carbonyl}amino)-N-[5-(pyrimidin-5-yl)-1,3,4-thiadiazol-2-yl]-4-(trifluoromethoxy)benzamide] | 206 | ≥ 50000 | –
6 | O=C(Nc1nnc(-c2cncnc2)s1)c1ccc(OC(F)(F)F)c(NC(=O)C2(N3CCOCC3)CC2)c1 [Example 30, 3-({[1-(morpholin-4-yl)cyclopropyl]carbonyl}amino)-N-[5-(pyrimidin-5-yl)-1,3,4-thiadiazol-2-yl]-4-(trifluoromethoxy)benzamide] | 535 | ≥ 50000 | –
7 | CN1CCN(CC(=O)Nc2cc(C(=O)Nc3nnc(-c4cnc(N)nc4)s3)ccc2OC(F)(F)F)CC1 [Example 31, N-[5-(2-aminopyrimidin-5-yl)-1,3,4-thiadiazol-2-yl]-3-{[(4-methylpiperazin-1-yl)acetyl]amino}-4-(trifluoromethoxy)benzamide] | 973 | ≥ 50000 | –
8 | CN1CCN(C2(C(=O)Nc3cc(C(=O)Nc4nnc(-c5cnc(N)nc5)s4)ccc3OC(F)(F)F)CC2)CC1 [Example 32, N-[5-(2-aminopyrimidin-5-yl)-1,3,4-thiadiazol-2-yl]-3-({[1-(4-methylpiperazin-1-yl)cyclopropyl]carbonyl}amino)-4-(trifluoromethoxy)benzamide] | 128 | ≥ 50000 | –
9 | Nc1ncc(-c2nnc(NC(=O)c3ccc(OC(F)(F)F)c(NC(=O)C4(N5CCOCC5)CC4)c3)s2)cn1 [Example 33, N-[5-(2-aminopyrimidin-5-yl)-1,3,4-thiadiazol-2-yl]-3-({[1-(morpholin-4-yl)cyclopropyl]carbonyl}amino)-4-(trifluoromethoxy)benzamide] | 197 | ≥ 50000 | –
10 | CN1CCN(CC(=O)Nc2cc(C(=O)Nc3nnc(-c4cccnc4)s3)ccc2OC2CC2)CC1 [Example 34, 4-(cyclopropyloxy)-3-{[(4-methylpiperazin-1-yl)acetyl]amino}-N-[5-(pyridin-3-yl)-1,3,4-thiadiazol-2-yl]benzamide] | 380 | 14000 | –
11 | O=C(CN1CCOCC1)Nc1cc(C(=O)Nc2nnc(-c3cccnc3)s2)ccc1OC1CC1 [Example 35, 4-(cyclopropyloxy)-3-[(morpholin-4-ylacetyl)amino]-N-[5-(pyridin-3-yl)-1,3,4-thiadiazol-2-yl]benzamide] | 278 | ≥ 50000 | –
12 | Cc1ccncc1-c1nnc(NC(=O)c2ccc(OC(F)(F)F)c(NC(=O)CN3CCN(C)CC3)c2)s1 [Example 36, 3-{[(4-methylpiperazin-1-yl)acetyl]amino}-N-[5-(4-methylpyridin-3-yl)-1,3,4-thiadiazol-2-yl]-4-(trifluoromethoxy)benzamide hydrochloride (1:1)] | – | ≥ 50000 | IC50 [1]: 60 nM
13 | Cc1ccncc1-c1nnc(NC(=O)c2ccc(OC(F)(F)F)c(NC(=O)CN3CCN(C)CC3)c2)s1 [Example 37, 3-{[(4-methylpiperazin-1-yl)acetyl]amino}-N-[5-(4-methylpyridin-3-yl)-1,3,4-thiadiazol-2-yl]-4-(trifluoromethoxy)benzamide] | – | – | IC50 [1]: 610 nM; IC50 [2]: ≥ 50000 nM
14 | CN1CCN(CC(=O)Nc2cc(C(=O)Nc3nnc(-c4ccc(N)nc4)s3)ccc2OC(F)(F)F)CC1 [Example 38, N-[5-(6-aminopyridin-3-yl)-1,3,4-thiadiazol-2-yl]-3-{[(4-methylpiperazin-1-yl)acetyl]amino}-4-(trifluoromethoxy)benzamide] | 268 | ≥ 50000 | –
15 | Cc1cncc(-c2nnc(NC(=O)c3ccc(OC(F)(F)F)c(NC(=O)CN4CCN(C)CC4)c3)s2)c1 [Example 39, 1-methyl-4-(2-{[5-{[5-(5-methylpyridin-3-yl)-1,3,4-thiadiazol-2-yl]carbamoyl}-2-(trifluoromethoxy)phenyl]amino}-2-oxoethyl)piperazin-1-ium hexafluorophosphate] | – | – | IC50 ([1]; Homo sapiens, HCT-116): 85.8 nM; IC50 ([2]; Homo sapiens, HCT-116): ≥ 50000 nM
16 | CN1CCN(CC(=O)Nc2cc(C(=O)Nc3nnc(-c4cncc(Cl)c4)s3)ccc2OC(F)(F)F)CC1 [Example 40, formic acid-N-[5-(5-chloropyridin-3-yl)-1,3,4-thiadiazol-2-yl]-3-{[(4-methylpiperazin-1-yl)acetyl]amino}-4-(trifluoromethoxy)benzamide (1:1)] | 114 | ≥ 50000 | –
17 | Cc1nccnc1-c1nnc(NC(=O)c2ccc(OC(F)(F)F)c(NC(=O)CN3CCN(C)CC3)c2)s1 [Example 41, 1-methyl-4-(2-{[5-{[5-(3-methylpyrazin-2-yl)-1,3,4-thiadiazol-2-yl]carbamoyl}-2-(trifluoromethoxy)phenyl]amino}-2-oxoethyl)piperazin-1-ium hexafluorophosphate] | – | – | IC50 ([1]; Homo sapiens, HCT-116): 860 nM; IC50 ([2]; Homo sapiens, HCT-116): ≥ 50000 nM
18 | Cc1cccnc1-c1nnc(NC(=O)c2ccc(OC(F)(F)F)c(NC(=O)CN3CCN(C)CC3)c2)s1 [Example 42, 1-methyl-4-(2-{[5-{[5-(3-methylpyridin-2-yl)-1,3,4-thiadiazol-2-yl]carbamoyl}-2-(trifluoromethoxy)phenyl]amino}-2-oxoethyl)piperazin-1-ium hexafluorophosphate] | – | – | IC50 ([1]; Homo sapiens, HCT-116): 320 nM; IC50 ([2]; Homo sapiens, HCT-116): 38500 nM
19 | CN1CCN(CC(=O)Nc2cc(C(=O)Nc3nnc(-c4ncccc4F)s3)ccc2OC(F)(F)F)CC1 [Example 43, 4-(2-{[5-{[5-(3-fluoropyridin-2-yl)-1,3,4-thiadiazol-2-yl]carbamoyl}-2-(trifluoromethoxy)phenyl]amino}-2-oxoethyl)-1-methylpiperazin-1-ium hexafluorophosphate] | – | – | IC50 ([1]; Homo sapiens, HCT-116): 2000 nM; IC50 ([2]; Homo sapiens, HCT-116): 32000 nM
20 | Cc1nc(-c2nnc(NC(=O)c3ccc(OC(F)(F)F)c(NC(=O)CN4CCN(C)CC4)c3)s2)cs1 [Example 44, 3-{[(4-methylpiperazin-1-yl)acetyl]amino}-N-[5-(2-methyl-1,3-thiazol-4-yl)-1,3,4-thiadiazol-2-yl]-4-(trifluoromethoxy)benzamide] | 423 | ≥ 50000 | –
